Test results: PMC11054735, “LDLR-Mediated Targeting and Productive Uptake of siRNA-Peptide Ligand Conjugates In Vitro and In Vivo” (Pharmaceutics, 2024)
Where two headings read alike, the source gives them in different places.

Experiments:
[1] = incubation at 2 mM in freshly collected mouse blood at 37 °C; LC-MS/MS on plasma fractions; peptide described elsewhere; cited from earlier work
From the text: Among the family of peptide-based vectors we identified, the VH4127 (cyclo[(D)-Cys-Met-Thz-Arg-Leu-Arg-Gly-Pen]) peptide ligand used in this study was described elsewhere. Briefly, it was obtained by high-throughput screening of phage display peptide libraries on engineered cell lines expressing the mouse and human LDLR, and was further chemically optimized for optimal LDLR-binding affinity and plasma stability. The VH4127 peptide contains three non-natural amino-acids D-Cys, Thz, and Pen (at positions 1, 3, and 8, respectively), and a disulfide bridge between D-Cys and Pen side ...

[2] = molecular target: T1, His-tagged recombinant mouse LDLR (extracellular domain, mLDLR-ECD) (Mus musculus, UniProt P35951); test: SPR LDLR-binding affinity (multiple-cycle kinetics, equilibrium KD); conditions: SPR Biacore T200, 25 °C, mLDLR on NiHC1000m chip (700–2000 RU), MCK mode, 50 mM HEPES-NaOH pH 7.4 running buffer, analyte 0.6–640 nM or 0.6–40 nM, equilibrium response fit, means ± SD of n = 6 (triplicate analysis of 2 independent experiments), read-out: Affinities SPR (equilibrium dissociation constant, KD)
T1 construct: recombinant mouse LDLR (extracellular domain, mLDLR-ECD); purchased SinoBiological (Beijing, China)
T1 sequence (P35951 22-790 limits assumed): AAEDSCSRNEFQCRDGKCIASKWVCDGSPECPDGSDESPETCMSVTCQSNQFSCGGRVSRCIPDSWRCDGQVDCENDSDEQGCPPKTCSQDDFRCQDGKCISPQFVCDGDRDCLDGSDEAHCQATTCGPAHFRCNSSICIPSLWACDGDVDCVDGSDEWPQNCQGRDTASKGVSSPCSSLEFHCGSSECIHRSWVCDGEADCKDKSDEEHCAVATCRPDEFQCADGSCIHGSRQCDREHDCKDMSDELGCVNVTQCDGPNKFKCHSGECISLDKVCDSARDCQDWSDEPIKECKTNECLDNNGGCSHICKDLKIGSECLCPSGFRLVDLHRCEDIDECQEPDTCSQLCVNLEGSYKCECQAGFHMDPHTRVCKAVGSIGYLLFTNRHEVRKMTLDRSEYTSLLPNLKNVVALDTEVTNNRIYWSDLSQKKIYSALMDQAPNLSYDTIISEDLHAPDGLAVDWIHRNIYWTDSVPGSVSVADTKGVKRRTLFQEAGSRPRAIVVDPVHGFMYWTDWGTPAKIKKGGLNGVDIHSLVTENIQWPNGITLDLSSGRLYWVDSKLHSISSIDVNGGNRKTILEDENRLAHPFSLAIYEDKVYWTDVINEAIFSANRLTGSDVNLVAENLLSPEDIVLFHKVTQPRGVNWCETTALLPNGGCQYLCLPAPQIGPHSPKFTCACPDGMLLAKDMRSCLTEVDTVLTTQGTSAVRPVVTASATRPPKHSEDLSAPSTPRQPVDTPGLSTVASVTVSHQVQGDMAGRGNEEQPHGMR
Protocol: His-tagged recombinant mouse LDLR (extracellular domain, mLDLR-ECD) was purchased from SinoBiological (Beijing, China). SPR measurements were performed at 25 °C using a Biacore T200 apparatus (Cytiva) and 50 mM HEPES-NaOH pH 7.4, 150 mM NaCl, 50 μM EDTA, 0.005% Tween-20 (v/v), 10 mM Imidazole as running buffer. mLDLR was immobilized on a NiHC1000 m sensor chip (Xantec, Dusseldorf, Germany) at a density of around 10–30 fmol/mm^2. A control flowcell without mLDLR was used as reference. The multiple-cycle kinetic (MCK) method was applied to study molecular interactions of peptides and conjugates. Seven to 11 different concentrations of the analyte were prepared by two-fold dilutions in running buffer (0.6–640 nM or 0.6–40 nM) and successively injected over the flowcells during 120 s at 30 μL/min with a dissociation time of 300 s. Blank runs of running buffer were performed in the same conditions and subtracted from sample runs before evaluation. Equilibrium dissociation constants (KD) were calculated by plotting saturation binding curves using the equilibrium response at the plateau of all curves with BiaEvaluation version 2.0 software. All data are the means of six determinations (triplicate analysis of 2 independent experiments).

[3] = test system: mSOD1 mRNA in Neuro-2a cells; test: Gene silencing after transfection (DharmaFECT 2) in Neuro-2a cells, RT-qPCR; format: cell-based, mouse; conditions: DharmaFECT 2, 30 nM, 24 h at 37 °C
Protocol: Neuro-2a cells were plated in a 96-well plate at 4000 cells/well one day before experiments. According to DharmaFECT general manufacturer’s protocol (Horizon Discovery), cells were transfected with a mix containing the DharmaFECT 2 and 30 nM of tested compound. […] At the end of the incubation period, Neuro-2a cells were washed once with D-PBS before RNA extraction.
(§1) For in vitro free uptake experiments, the total RNA was extracted using the NucleoSpin RNA XS (Macherey Nagel, Hoerdt, France) according to the manufacturer’s recommendations. For transfection experiments the SuperScript™ IV CellsDirect™ cDNA Synthesis kit (Thermo Fisher Scientific) was used according to manufacturer’s recommendations. For in vivo experiments, mouse organs were crushed in 2 mL tubes pre-filled with ceramic mixture in Precellys®Cryolys® Evolution (Bertin, Montigny le Bretonneux, France) with a QIAZOL lysis buffer (Qiagen, Venlo, The Netherlands). A volume of 150 µL of chloroform (Sigma Aldrich) was added to 750 µL of tissue homogenate and a phenol/chloroform separation was performed using centrifugation for 15 min at 6000× g at 4 °C. Aqueous phases were recovered and RNA extraction was performed with the RNeasy 96 QIAcube HT Kit (Qiagen) according to the manufacturer’s recommendations, in a QIACUBE HT instrument (Qiagen). […] For reverse transcription (RT), 500 ng of total RNA were used (except for cells treated with SuperScript™ IV CellsDirect™ cDNA Synthesis), and cDNA synthesis was performed using the High-Capacity RNA-to-cDNA™ kit (Thermo Fisher Scientific) according to the manufacturer’s recommendations.
(§2) Real-time quantitative PCR (RT-qPCR) assays were performed using the CFX96 Touch Real-Time PCR Detection System (Bio-Rad, Hercules, CA, USA). […] The following primers were used: Mm01344233_g1 SOD1 (mouse), Mm02526700_g1 RpL13 (mouse), Mm01352366_m1 SDHA (mouse), Mm00457191_m1 PSMC4 (mouse). RpL13, SDHA, or PSMC4 served as internal controls for sample normalization, and the comparative cycle threshold method (2−ΔΔCt) was used for data quantification. Finally, gene expression ratios (compared to control samples) were determined.
(A) Transfection of unconjugated siSOD1 and siSOD1-peptide conjugates on Neuro-2a cells at 30 nM. […] (B) Free uptake experiments of unconjugated siSOD1 and siSOD1-peptide conjugates on Neuro-2a cells at 1 µM. After 3 days at 37 °C, mSOD1 mRNA levels were quantified using RT-qPCR. Each dot corresponds to the mean value obtained in independent experiments. (C) Free uptake experiments of siSOD1-31, -35, -36, -37 conjugates with their respective negative controls siSOD1-31Sc, -35Sc, -36Sc, -37Sc on Neuro-2a cells at 1 µM.

[4] = test system: mSOD1 mRNA in Neuro-2a cells; test: Gene silencing by free uptake in Neuro-2a cells, RT-qPCR; format: cell-based, mouse; conditions: 1 µM, 3 days at 37 °C, DMEM with 1% fetal calf serum
Protocol: Neuro-2a cells were plated in a 48-well plate at 13,000 cells/well the day before the test. All siRNA and conjugates were incubated during 3 days at 37 °C with 1 µM of conjugate prepared in DMEM supplemented with 1% fetal calf serum. At the end of the incubation period, cells were washed once with D-PBS before RNA extraction. For in vitro free uptake experiments, the total RNA was extracted using the NucleoSpin RNA XS (Macherey Nagel, Hoerdt, France) according to the manufacturer’s recommendations. For transfection experiments the SuperScript™ IV CellsDirect™ cDNA Synthesis kit (Thermo Fisher Scientific) was used according to manufacturer’s recommendations. […] Aqueous phases were recovered and RNA extraction was performed with the RNeasy 96 QIAcube HT Kit (Qiagen) according to the manufacturer’s recommendations, in a QIACUBE HT instrument (Qiagen). […] For reverse transcription (RT), 500 ng of total RNA were used (except for cells treated with SuperScript™ IV CellsDirect™ cDNA Synthesis), and cDNA synthesis was performed using the High-Capacity RNA-to-cDNA™ kit (Thermo Fisher Scientific) according to the manufacturer’s recommendations. Real-time quantitative PCR (RT-qPCR) assays were performed using the CFX96 Touch Real-Time PCR Detection System (Bio-Rad, Hercules, CA, USA). […] Finally, gene expression ratios (compared to control samples) were determined. […] (A) Transfection of unconjugated siSOD1 and siSOD1-peptide conjugates on Neuro-2a cells at 30 nM. […] (B) Free uptake experiments of unconjugated siSOD1 and siSOD1-peptide conjugates on Neuro-2a cells at 1 µM. […] Each dot corresponds to the mean value obtained in independent experiments.

SOD1 mRNA in liver = test: In vivo gene silencing in mouse liver after i.v. administration, RT-qPCR; conditions: C57Bl/6JRj mice, single i.v. bolus 1 µmole/kg (15 mg/kg siRNA) in PBS, liver 7 days post-administration
Protocol: Wild-type male C57Bl/6JRj mice (Janvier Labs, Le Genest-Saint-Isle, France) aged 10–12 weeks old were used. All animal studies were approved by the ethics committee for animal experimentation (CEEA-N°14) and approved by French ministry of agriculture (MRC). […] Intravenous (i.v., lateral tail vein) administrations (15 mg/kg) were performed on conscious restrained mice. Following a 7-day observational period, animals were euthanized by an intraperitoneal overdose of Ketamin-Xylasine mixture (Sigma Aldrich, Saint-Quentin-Fallavier, France), and tissue samples were collected after extensive blood wash-out by intracardiac perfusion (Left ventricle, Flow rate 8 mL/min) of a saline solution (0.9%) and immediately stored at −20 °C in 10 vol NucleoProtect RNA stabilization reagent (Macherey-Nagel, Düren, Germany) before further RNA extraction and target mRNA quantification.
as §1, §2
The in vivo targeting and functional uptake potential of LDLR-binding siSOD1-peptide conjugates was evaluated as follows.
Mice were injected (i.v. lateral tail vein) with unconjugated siRNAs and siSOD1-peptide conjugates in PBS (15 mg/kg). Seven days post-administration mice were euthanized and perfused with saline solution (0.9% NaCl). Organs were collected to assess the SOD1 mRNA levels using RT-qPCR.

| Molecule | In vitro plasma stability, estimated half-life [1] [h] | Kd ([2]; SD) [nM] | Kd [2] [nM] | In Vitro KD on N2A, Transfection (mSOD1 mRNA knock-down) [3] [%] | In Vitro KD on N2A, Free Uptake (mSOD1 mRNA knock-down) [4] | In Vivo KD, Liver (SOD1 mRNA knock-down) (SOD1 mRNA in liver) |
| --- | --- | --- | --- | --- | --- | --- |
| CCC(=O)N[C@@H]1CSSC(C)(C)[C@@H](C(N)=O)NC(=O)CNC(=O)[C@H](CCCNC(=N)N)NC(=O)[C@H](CC(C)C)NC(=O)[C@H](CCCNC(=N)N)NC(=O)[C@@H]2CSCN2C(=O)[C@H](CCSC)NC1=O [VH4127, cyclo[(D)-Cys-Met-Thz-Arg-Leu-Arg-Gly-Pen]] | 4.27 |  |  |  |  |  |
| Pr-K(N3)-PEG2-[cMThzRLRGPen]c-NH2 (disulfide) [siSOD1-31] |  | 104 ± 11.7 | 87 to 104 | >90 | 55% | 40% |
| Pr-K(N3)-PEG2-[cMThzRLRGPen]c-NH2 (disulfide) [siSOD1-33] |  | 12.8 ± 1.9 |  | >90 |  | ~50% |
| Pr-K(N3)-PEG2-[cMThzRLRGPen]c-NH2 (disulfide) [siSOD1-36] |  | 25 ± 1.2 |  | >90 | 60% | 30% |
| Pr-K(N3)-PEG2-[cMThzRLRGPen]c-NH2 (disulfide) [siSOD1-37] |  | 31.9 ± 1.6 |  | >90 | 60% | 35% |
| Pr-[cMThzRLRGPenG]c-OH (disulfide) [siSOD1-35] |  | 11.3 ± 2.9 |  | >90 | improved KD effect compared to its non-binding control siSOD1-35sc | 50% |
| Pr-[cMThzRLRGPen]c-PEG2-K(N3)-NH2 (disulfide) [siSOD1-32] |  | 86.8 ± 17.1 | 87 to 104 | 40 | did not show improvement compared to the unconjugated 5′P-siSOD1 | ~ 20% |
